Positions of bridges follow the written chain, without caps; N, C: chain ends. Non-standard residues stand in square brackets, D forms with d. Residues, ends and D or L forms follow the SMILES beside them. Chains are numbered I, II in the order given. *: point of attachment. PEG28 = NCCOCCOCCOCCOCCOCCOCCOCCOCCOCCOCCOCCOCCOCCOCCOCCOCCOCCOCCOCCOCCOCCOCCOCCOCCOCCOCCOCCOCCC(=O)O; Tyr(3-NO2) = N[C@@H](Cc1ccc(O)c([N+](=O)[O-])c1)C(=O)O; Hyp = O=C(O)[C@@H]1C[C@@H](O)CN1; For = O=C*
Test system: A431, U-87 or HT-29 cells
Assay: MTT assay
Assay type: cell-based, Human
Settings: 100 nM to 10 µM, 24 h or 72 h, A431, U-87, HT-29 cells, triplicates
Method: were recorded at 278 K and referenced to the water signal. Spectra were assigned with CCPNMR1 using the sequential assignment protocol. Secondary Hα chemical shif ts were calculated as the difference between the measured Hα chemical shift and the respective random coil shif t.2 Random coil shifts were temperature corrected using the correction factors calculated by Kjaergaard et al.3 For the D-amino acids, the random coil shift of the respective L-amino acid was used, the random coil shif t of Tyr was used for Tyr(3-NO2) and 4.54 ppm was used f or Hyp Hα . Oxid ized Y9 (MW 5268.0) was prepared by dissolving Y9 in Na2HPO4 buff er (50 mM, pH 7.0). After HPLC purif ication, the oxidized Y9 (2.1 mg) was dissolved in 90% H2O/10% D2O (500 µL) at pH 2.9 and NMR spectra were acquired as described above. […]
Stained cells were analyzed by f low cytometr y. […]
At the end of the incubation period (24 h or 72 h at 37°C in 5% CO2) cells were 30- 80% conf luent. […] 04M HCl were added and absorbances were measured at 595 nm.
Absorbances were plotted against the agent’s concentrations. A high absorbance value […]
present in the well as compared to wells with low absorbance values.
Figure S13 : MTT assays showing no ef f ect of Y9 and sc- Y9 on the viability and prolif eration of diff erent tumor cell lines. […] To indicate background: the absorbance values of medium without cells were between 0.11 and […]

CC[C@H](C)[C@H](NC(=O)[C@H](CCSC)NC=O)C(=O)N[C@@H](Cc1ccccc1)C(=O)N[C@@H](CC(C)C)C(=O)NCC(=O)NCC(=O)N[C@@H](CCCCNC(=O)CCOCCOCCOCCOCCOCCOCCOCCOCCOCCOCCOCCOCCOCCOCCOCCOCCOCCOCCOCCOCCOCCOCCOCCOCCOCCOCCOCCOCCNC(=O)[C@H]1CSSC[C@@H](N)C(=O)N[C@H](CC(=O)O)C(=O)NCC(=O)N[C@@H](Cc2ccc(O)c([N+](=O)[O-])c2)C(=O)NCC(=O)N2C[C@H](O)C[C@H]2C(=O)N[C@@H](CC(N)=O)C(=O)N1)C(=O)N[C@@H](CCCCNC(=O)CCOCCOCCOCCOCCOCCOCCOCCOCCOCCOCCOCCOCCOCCOCCOCCOCCOCCOCCOCCOCCOCCOCCOCCOCCOCCOCCOCCOCCNC(=O)[C@H]1CSSC[C@@H](N)C(=O)N[C@H](CC(=O)O)C(=O)NCC(=O)N[C@@H](Cc2ccc(O)c([N+](=O)[O-])c2)C(=O)NCC(=O)N2C[C@H](O)C[C@H]2C(=O)N[C@@H](CC(N)=O)C(=O)N1)C(=O)O [Y9] (I: H-[dC][dD]G[Tyr(3-NO2)]G[Hyp]N[dC][PEG28] / II: H-[dC][dD]G[Tyr(3-NO2)]G[Hyp]N[dC][PEG28] / III: For-MIFLGGKK-OH; disulfide I:1-I:8, II:1-II:8; amide I:C-III:7, II:C-III:8)
effect on viability and proliferation (MTT): No effect
